From the OligoGym collection
After the bases stand the sugars from the 5' end (letter, count) and the backbone: PS all phosphorothioate, else s phosphorothioate and o phosphodiester by linkage. Methylation of C is not given here. l = locked nucleic acid (LNA); d = 2'-deoxy (DNA)

Target: SNHG14
Details: ASO, Human Neuronal Cell

Sequence	target mRNA inhibition (7.5 µM)	target mRNA inhibition (0.2 µM)	target mRNA inhibition (1 µM)
TTCAGCTTTTAACCAGAGT (sugars l2 d14 l3, PS)	73%	–	–
TTCCATTTATTTCCATTTAT (sugars ldldddldddddddldddll, PS)	56%	–	–
TTCCATTTATTTCCATTTAT (sugars ldlddlddddddddldldll, PS)	63%	–	–
TTCTACTATACTTTCCTCT (sugars l1 d14 l1 d1 l2, PS)	50%	–	–
TTCTACTATACTTTCCTCT (sugars lddddlddddddddlddll, PS)	57%	–	–
TTCTACTATACTTTCCTCT (sugars ldddlddddddddddldll, PS)	53%	–	–
TTCTACTATACTTTCCTCT (sugars ldlddddddddddddldll, PS)	63%	–	–
TTCTACTATACTTTCCTCT (sugars ldldddddddddddlddll, PS)	59%	–	–
TTCTGTATACACCATCC (sugars l1 d1 l1 d12 l2, PS)	62%	–	–
TTCTGTATACACCATCC (sugars l1 d12 l1 d1 l2, PS)	62%	–	–
TTCTGTATACACCATCC (sugars l1 d14 l2, PS)	46%	–	–
TTCTGTATACACCATCC (sugars l3 d12 l2, PS)	58%	–	–
TTCTGTATACACCATCC (sugars ldddlddddddddldll, PS)	65%	–	–
TTCTGTATACACCATCC (sugars lddlddddddddlddll, PS)	60%	–	–
TTCTGTATACACCATCCC (sugars l1 d11 l1 d3 l2, PS)	54%	–	–
TTCTGTATACACCATCCC (sugars l1 d15 l2, PS)	58%	–	–
TTCTTGTTTATCCCAA (sugars l2 d10 l4, PS)	–	67%	71%
TTGATTCAATTCCCTTA (sugars l2 d10 l1 d1 l3, PS)	68%	–	–
TTGATTCAATTCCCTTA (sugars l2 d11 l1 d1 l2, PS)	60%	–	–
TTGATTCAATTCCCTTA (sugars lddlldddddddlldll, PS)	66%	–	–
TTGATTCAATTCCCTTA (sugars lldlddddddddlddll, PS)	63%	–	–
TTGTCTCTAATCCTAT (sugars l2 d10 l4, PS)	–	38%	54%
TTTACACTTAATTATACTTC (sugars lldddldddddddlllldll, PS)	51%	–	–
TTTACACTTAATTATACTTC (sugars lldllddddddddldlllll, PS)	29%	–	–
TTTACACTTAATTATACTTC (sugars lllddldddddddllldlll, PS)	22%	–	–
TTTACACTTAATTATACTTC (sugars llldlddddddddlddllll, PS)	55%	–	–

Sequence	target mRNA inhibition (7.5 µM)	target mRNA inhibition (0.2 µM)	target mRNA inhibition (1 µM)
TTTACATTGACACCTA (sugars l2 d10 l4, PS)	–	20%	31%
TTTATACCTTTCTTTAAC (sugars l2 d12 l4, PS)	–	4%	21%
TTTATCAATATCTTCTCAC (sugars lldldlddddddllddlll, PS)	58%	–	–
TTTATCAATATCTTCTCAC (sugars lldlllddddddlddddll, PS)	65%	–	–
TTTATCAATATCTTCTCACT (sugars lddldldddddddddddlll, PS)	57%	–	–
TTTATCTCATGACCAC (sugars l2 d10 l4, PS)	–	53%	63%
TTTATTTCCATTTATTTTC (sugars ldldlddddddddlldlll, PS)	53%	–	–
TTTATTTCCATTTATTTTC (sugars lllddldddddddllldll, PS)	51%	–	–
TTTATTTCCATTTATTTTCA (sugars lddddldddddddldlddll, PS)	46%	–	–
TTTATTTCCATTTATTTTCA (sugars ldddlldddddddddlldll, PS)	65%	–	–
TTTATTTCCATTTATTTTCA (sugars ldldddddddddddlddlll, PS)	60%	–	–
TTTATTTCCATTTATTTTCA (sugars lldldlddddddddldldll, PS)	63%	–	–
TTTCAGCTTTTAACCAGAGT (sugars l2 d15 l3, PS)	67%	–	–
TTTCCATTTATTTCCATTTA (sugars l2 d2 l1 d12 l3, PS)	62%	–	–
TTTCCATTTATTTCCATTTA (sugars lddlddlddddddddlddll, PS)	61%	–	–
TTTCCTATATTCTCTTA (sugars l4 d11 l2, PS)	–	56%	64%
TTTCTTACTATCTTCA (sugars l4 d10 l2, PS)	–	53%	61%
TTTGACATTCCATCTCC (sugars l2 d12 l3, PS)	–	38%	55%
TTTTAACCAGAGTGGCA (sugars l3 d11 l3, PS)	56%	–	–
TTTTATACCTTTCTTTAACC (sugars l1 d15 l1 d1 l2, PS)	24%	–	–
TTTTATACCTTTCTTTAACC (sugars ldddlddddddddlddddll, PS)	-9%	–	–
TTTTTATACCTTTCTTTAAC (sugars llldlddddddddldldlll, PS)	62%	–	–
TTTTTTCTTACTATCTTCAA (sugars ldddddldddddddllddll, PS)	43%	–	–
TTTTTTTCTTACTATCTTCA (sugars l1 d14 l1 d2 l2, PS)	17%	–	–
TTTTTTTCTTACTATCTTCA (sugars l2 d3 l1 d12 l2, PS)	14%	–	–
TTTTTTTCTTACTATCTTCA (sugars lldldddddddddlddddll, PS)	49%	–	–
